From patent US8778888B2, “Cystine knot peptides binding to alpha IIb beta 3 integrins and methods of use” (The Board of Trustees of the Leland Stanford Junior …, priority 2009, dated 2014)

Experiments:
human platelets = settings: ADP-activated human platelets; comparison with eptifibatide
Description: Human platelets isolated by pheresis were obtained from the Stanford Blood Center and stored in serum with 7% acid/citrate/dextrose (ACD) solution. Prior to use, the platelets were centrifuged, aspirated, washed once with Tyrode's buffer (140 mM NaCl, 3 mM KCl, 12 mM NaHCO3, 0.4 mM NaH2PO4, 2 mM MgCl2, 0.1% glucose, pH 7.4), and counted using a haemacytometer. Counted platelets were resuspended in fresh plasma to a final concentration of approximately 2.8×10^8 cells/mL. 180 μL of the platelet solution, or approximately 5×10^7 platelets, were added to separate wells in a 96-well microtiter plate. AgRP peptide or eptifibatide (Cell Sciences) were added to the wells at varying concentrations, after which the platelets were activated with 25 μM ADP. Absorbance at 365 nm was monitored over 1 hr using a Synergy 4 microplate reader (BioTek Instrumentation) with readings taken every 35 s, with 3 s of shaking between readings. […] Experiments were performed at least 3 times.
Next, the effects of the engineered AgRP peptides on αIIbβ3-mediated platelet aggregation were studied. Three αIIbβ3-specific peptides (2bA, 2bJ, and 2bO) and two β3-specific peptides (b3A and b3I) were tested again. […] Microtiter plates containing platelets in serum in the presence or absence of AgRP peptides were activated using ADP at a final concentration of 25 μM, and absorbance at 365 nm was monitored over 1 h.

[1] = target: T1, αIIbβ3 integrin (K562-αIIbβ3 cells) (Homo sapiens, UniProt P05106+P08514); assay: Cell binding assay on K562-αIIbβ3 cells (flow cytometry); settings: K562-αIIbβ3 versus K562-αvβ3 cells
T1 construct: expressed in transfected cells; host or cells: K562 leukemia cells (from S. Blystone)
Description: K562 cells stably expressing αIIbβ3, αvβ3, or αvβ5 were obtained from S. Blystone and maintained in IMDM media (Gibco) containing 10% FBS and 1.0 mg/mL geneticin. For binding assays, 10^5 cells were suspended in IBB, and varying concentrations of AgRP peptides were added. After 3 hour incubation at 4° C., the cells were centrifuged, aspirated, and resuspended in ice-cold BPBS containing a 1:20 dilution of fluorescein-conjugated goat anti-His antibody (Bethyl) for […]. The cells were then centrifuged, aspirated, and stored as pellets on ice until analysis by flow cytometry using a BD FACS Caliber instrument Becton Dickinson. Binding data was analyzed with FlowJo (Treestar, Inc.) and data was fit to sigmoidal plots using Kaleidagraph (Synergy Software) to calculate equilibrium dissociation constants. Experiments were performed at least 3 times and data are presented as average values with standard deviations.
To determine the integrin binding affinities and specificities of the engineered AgRP peptides, direct binding assays were performed using K562 leukemia cells that have been transfected to stably express different integrin receptors See J. Cell Biol. 127(4) (1994). Cells were incubated in the presence of varying concentrations of AgRP peptides at 4° C., to minimize receptor internalization, followed by staining with a fluorescein-conjugated anti-hexahistidine antibody and analysis by flow cytometry. Equilibrium dissociation constants (KD values) were determined by plotting AgRP peptide concentration (log scale) versus normalized mean fluorescence intensity, then fitting the data to a sigmoidal curve.

T1 sequence (P08514 32-887 limits assumed): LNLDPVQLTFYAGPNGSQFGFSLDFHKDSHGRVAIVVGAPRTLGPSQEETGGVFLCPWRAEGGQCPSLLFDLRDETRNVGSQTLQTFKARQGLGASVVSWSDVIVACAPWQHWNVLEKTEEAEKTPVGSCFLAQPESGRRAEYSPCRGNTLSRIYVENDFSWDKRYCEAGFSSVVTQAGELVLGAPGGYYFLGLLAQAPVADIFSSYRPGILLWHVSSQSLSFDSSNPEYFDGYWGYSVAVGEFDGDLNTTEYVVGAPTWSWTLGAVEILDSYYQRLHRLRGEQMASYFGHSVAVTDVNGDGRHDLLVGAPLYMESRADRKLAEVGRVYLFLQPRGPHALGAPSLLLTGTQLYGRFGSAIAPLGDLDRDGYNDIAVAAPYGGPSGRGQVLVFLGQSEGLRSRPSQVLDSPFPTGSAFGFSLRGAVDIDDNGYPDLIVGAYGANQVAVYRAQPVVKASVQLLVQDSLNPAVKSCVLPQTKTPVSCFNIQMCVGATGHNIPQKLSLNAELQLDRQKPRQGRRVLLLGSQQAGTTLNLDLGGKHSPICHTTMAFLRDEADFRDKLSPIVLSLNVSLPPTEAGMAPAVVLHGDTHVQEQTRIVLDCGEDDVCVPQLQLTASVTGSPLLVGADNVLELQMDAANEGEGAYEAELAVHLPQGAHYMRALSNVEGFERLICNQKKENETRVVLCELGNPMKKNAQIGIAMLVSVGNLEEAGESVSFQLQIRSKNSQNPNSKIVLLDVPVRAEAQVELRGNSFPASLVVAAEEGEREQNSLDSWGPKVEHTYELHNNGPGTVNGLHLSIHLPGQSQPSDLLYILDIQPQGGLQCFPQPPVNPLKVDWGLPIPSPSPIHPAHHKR
T1 sequence (P08514 891-1039 partner limits assumed): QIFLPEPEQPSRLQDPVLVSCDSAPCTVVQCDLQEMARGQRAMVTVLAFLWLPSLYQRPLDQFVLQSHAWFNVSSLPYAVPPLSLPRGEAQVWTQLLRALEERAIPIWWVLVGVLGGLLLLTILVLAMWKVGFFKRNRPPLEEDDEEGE
T1 sequence (P05106 27-788): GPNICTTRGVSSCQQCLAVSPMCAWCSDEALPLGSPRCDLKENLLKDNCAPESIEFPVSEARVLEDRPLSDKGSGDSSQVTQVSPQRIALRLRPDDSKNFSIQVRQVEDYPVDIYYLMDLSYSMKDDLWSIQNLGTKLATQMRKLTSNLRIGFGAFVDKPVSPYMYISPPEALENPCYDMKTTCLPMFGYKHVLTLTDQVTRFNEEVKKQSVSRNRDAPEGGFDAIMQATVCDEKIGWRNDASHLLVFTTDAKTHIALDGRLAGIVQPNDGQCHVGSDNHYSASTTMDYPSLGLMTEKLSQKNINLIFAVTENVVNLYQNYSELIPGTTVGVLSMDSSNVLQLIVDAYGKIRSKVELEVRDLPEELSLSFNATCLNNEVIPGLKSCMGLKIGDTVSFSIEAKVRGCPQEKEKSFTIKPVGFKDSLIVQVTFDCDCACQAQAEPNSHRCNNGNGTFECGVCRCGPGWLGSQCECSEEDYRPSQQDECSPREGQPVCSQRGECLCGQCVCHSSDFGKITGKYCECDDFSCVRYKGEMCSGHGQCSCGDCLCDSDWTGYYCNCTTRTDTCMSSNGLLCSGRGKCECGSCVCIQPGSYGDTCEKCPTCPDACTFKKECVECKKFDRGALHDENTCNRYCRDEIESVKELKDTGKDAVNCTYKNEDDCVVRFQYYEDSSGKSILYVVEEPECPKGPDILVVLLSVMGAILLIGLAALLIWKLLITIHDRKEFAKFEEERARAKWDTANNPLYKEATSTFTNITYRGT

| Structure (SMILES) | inhibition of platelet aggregation (in words) (human platelets) | integrin binding specificity on K562 cell lines [1] |
| --- | --- | --- |
| CC(C)C[C@@H]1NC(=O)[C@@H]2CSSC[C@@H]3NC(=O)[C@H]([C@@H](C)O)NC(=O)[C@H](C)NC(=O)[C@H](C)NC(=O)[C@@H]4CCCN4C(=O)[C@H](CC(=O)O)NC(=O)[C@H](CSSC[C@H](NC(=O)CNC(=O)[C@H](CCCNC(=N)N)NC(=O)[C@@H]4CCCN4C(=O)[C@H](CCCCN)NC(=O)[C@H](CC(=O)O)NC(=O)[C@H](CC(=O)O)NC(=O)[C@H](CC(=O)O)NC(=O)[C@H](CC(=O)O)NC(=O)[C@H](CCCCN)NC(=O)[C@H](Cc4ccc(O)cc4)NC(=O)[C@H](CC(=O)O)NC(=O)[C@@H](NC(=O)[C@@H](N)Cc4ccc(O)cc4)C(C)C)C(=O)N[C@@H](C(C)C)C(=O)N[C@@H](CCCNC(=N)N)C(=O)N[C@@H](CC(C)C)C(=O)N[C@@H](Cc4c[nH]cn4)C(=O)N[C@@H](CCC(=O)O)C(=O)N[C@@H](CO)C(=O)N2)NC(=O)[C@H](CSSC[C@@H](C(=O)N[C@@H](CCCNC(=N)N)C(=O)N[C@H](C(=O)N[C@@H](CCCNC(=N)N)C(=O)N[C@@H](Cc2c[nH]cn2)C(=O)N[C@@H](Cc2c[nH]cn2)C(=O)N[C@@H](Cc2c[nH]cn2)C(=O)N[C@@H](Cc2c[nH]cn2)C(=O)N[C@@H](Cc2c[nH]cn2)C(=O)N[C@@H](Cc2c[nH]cn2)C(=O)O)[C@@H](C)O)NC(=O)[C@H](Cc2ccc(O)cc2)NC(=O)[C@@H]2CSSC[C@H](NC(=O)[C@H](Cc4ccc(O)cc4)NC3=O)C(=O)N[C@@H](C(C)C)C(=O)NCC(=O)N[C@@H](CCCNC(=N)N)C(=O)NCC(=O)N[C@@H](CC(=O)O)C(=O)N[C@@H](C(C)C)C(=O)N[C@@H](CCCNC(=N)N)C(=O)N[C@@H](CCCNC(=N)N)C(=O)N[C@@H](CCCCN)C(=O)N2)NC(=O)[C@@H]2CCCN2C(=O)[C@H](C(C)C)NC(=O)[C@H](CCC(N)=O)NC(=O)[C@H](CCC(N)=O)NC(=O)CNC1=O [b3A] | slightly more effective | bound both K562-αIIbβ3 and K562-αvβ3 cells |
| CC(C)C[C@@H]1NC(=O)[C@@H]2CSSC[C@@H]3NC(=O)[C@H]([C@@H](C)O)NC(=O)[C@H](C)NC(=O)[C@H](C)NC(=O)[C@@H]4CCCN4C(=O)[C@H](CC(=O)O)NC(=O)[C@H](CSSC[C@H](NC(=O)CNC(=O)[C@H](CCCNC(=N)N)NC(=O)[C@@H]4CCCN4C(=O)[C@H](CCCCN)NC(=O)[C@H](CC(=O)O)NC(=O)[C@H](CC(=O)O)NC(=O)[C@H](CC(=O)O)NC(=O)[C@H](CC(=O)O)NC(=O)[C@H](CCCCN)NC(=O)[C@H](Cc4ccc(O)cc4)NC(=O)[C@H](CC(=O)O)NC(=O)[C@@H](NC(=O)[C@@H](N)Cc4ccc(O)cc4)C(C)C)C(=O)N[C@@H](C(C)C)C(=O)N[C@@H](CCCNC(=N)N)C(=O)N[C@@H](CC(C)C)C(=O)N[C@@H](Cc4c[nH]cn4)C(=O)N[C@@H](CCC(=O)O)C(=O)N[C@@H](CO)C(=O)N2)NC(=O)[C@H](CSSC[C@@H](C(=O)N[C@@H](CCCNC(=N)N)C(=O)N[C@H](C(=O)N[C@@H](CCCNC(=N)N)C(=O)N[C@@H](Cc2c[nH]cn2)C(=O)N[C@@H](Cc2c[nH]cn2)C(=O)N[C@@H](Cc2c[nH]cn2)C(=O)N[C@@H](Cc2c[nH]cn2)C(=O)N[C@@H](Cc2c[nH]cn2)C(=O)N[C@@H](Cc2c[nH]cn2)C(=O)O)[C@@H](C)O)NC(=O)[C@H](Cc2ccc(O)cc2)NC(=O)[C@@H]2CSSC[C@H](NC(=O)[C@H](Cc4ccc(O)cc4)NC3=O)C(=O)N[C@@H](CCCNC(=N)N)C(=O)NCC(=O)N[C@@H](CCCNC(=N)N)C(=O)NCC(=O)N[C@@H](CC(=O)O)C(=O)N[C@@H](C(C)C)C(=O)N[C@@H](CCCCN)C(=O)N[C@@H](CC(C)C)C(=O)N[C@@H](CCCNC(=N)N)C(=O)N2)NC(=O)[C@@H]2CCCN2C(=O)[C@H](C(C)C)NC(=O)[C@H](CCC(N)=O)NC(=O)[C@H](CCC(N)=O)NC(=O)CNC1=O [b3I] | slightly more effective | bound both K562-αIIbβ3 and K562-αvβ3 cells |
